Source: US8569267B2, “Tetracyclic tetrahydrofuran derivatives containing cyclic amine side chain” (Janssen Pharmaceutica, NV, priority 2005, dated 2013)
Where two headings read alike, the source gives them in different places.

What was measured:
[1] = target: T1, human cloned 5-HT2A receptor, expressed in L929 cells (Homo sapiens, UniProt P28223); assay: In vitro binding affinity for 5-HT2A receptor ([125I]R91150 radioligand binding)
T1 construct: expressed in transfected cells; host or cells: L929 cells
Procedure: (§1) In Vitro Binding Affinity for 5-HT2A and 5-HT2C Receptors
(§2) The interaction of the compounds of Formula (I) with 5-HT2A and 5-HT2C receptors was assessed in in vitro radioligand binding experiments. […] During the incubation, the radioligands bind to the receptor. When equilibrium of binding is reached, the receptor bound radioactivity is separated from the non-bound radioactivity, and the receptor bound activity is counted. The interaction of the test compounds with the receptors is assessed in competition binding experiments. Various concentrations of the test compound are added to the incubation mixture containing the tissue preparation and the radioligand. Binding of the radioligand will be inhibited by the test compound in proportion to its binding affinity and its concentration. The affinities of the compounds for the 5-HT2 receptors were measured by means of radioligand binding studies conducted with: (a) human cloned 5-HT2A receptor, expressed in L929 cells using [^125I]R91150 as radioligand and (b) human cloned 5-HT2C receptor, expressed in CHO cells using [^3H]mesulergine as radioligand.

[2] = target: T2, NET (norepinephrine transporter) (Rattus norvegicus, UniProt Q63380); assay: In vitro determination of NET reuptake inhibition ([3H]Nixosetine binding, rat brain cortex); conditions: rat brain cortex; for IC50: read-out: NET pIC50 (converted)
T2 construct: Cortex from rat brain was collected and homogenised; from tissue; host or cells: rat brain cortex
Procedure: In Vitro Determination of NET Reuptake Inhibition
Cortex from rat brain was collected and homogenised using an Ultra-Turrax T25 and a Dual homogeniser in ice-cold homogenising buffer containing Tris, NaCl and KCl (50 mM, 120 mM and 5 mM, respectively, pH 7.4) prior to dilution to an appropriate protein concentration optimised for specific and non-specific binding. […] Membrane-bound activity was detected by filtration through a Packard Filtermate harvester onto GF/B Unifilterplates, washed with ice-cold Tris-HCl buffer, containing NaCl and KCl (50 mM, 120 mM and 4 mM; pH 7.4; 6×0.5 ml). Filters were allowed to dry for 24 h before adding scintillation fluid. Scintillation fluid was allowed to saturate filters for 24 h before counting in a Topcount scintillation counter. Percentage specific bound and competition binding curves were calculated using S-Plus software (Insightful).

[3] = target: T3, human Dopamine D2L receptor (Homo sapiens, UniProt P14416); assay: In vitro binding affinity for human D2L receptor ([3H]Spiperone binding); conditions: human D2L receptor-transfected CHO cell membranes; for IC50: read-out: D2L pIC50 (converted)
T3 construct: expressed in transfected cells; host or cells: CHO cells
Procedure: In Vitro Binding Affinity for Human D2L Receptor
Frozen membranes of human Dopamine D2L receptor-transfected CHO cells were thawed, briefly homogenised using an Ultra-Turrax T25 homogeniser and diluted in Tris-HCl assay buffer containing NaCl, CaCl2, MgCl2, KCl (50, 120, 2, 1, and 5 mM respectively, adjusted to pH 7.7 with HCl) to an appropriate protein concentration optimised for specific and non-specific binding. Radioligand [^3H]Spiperone (NEN, specific activity ˜70 Ci/mmol) was diluted in assay buffer at a concentration of 2 nmol/L. Prepared radioligand (50 μl), along with 50 μl of either the 10% DMSO control, Butaclamol (10^−6 mol/l final concentration), or compound of interest, was then incubated (30 min, 37° C.) with 400 μl of the prepared membrane solution. Membrane-bound activity was filtered through a Packard Filtermate harvester onto GF/B Unifilterplates and washed with ice-cold Tris-HCl buffer (50 mM; pH 7.7; 6×0.5 ml). Filters were allowed to dry before adding scintillation fluid and counting in a Topcount scintillation counter. Percentage specific bound and competition binding curves were calculated using S-Plus software (Insightful).

[4] = target: T4, human cloned 5-HT2C receptor, expressed in CHO cells (Homo sapiens, UniProt P28335); assay: In vitro binding affinity for 5-HT2C receptor ([3H]mesulergine radioligand binding); conditions: human cloned 5-HT2C receptor; for IC50: read-out: 5-HT2C pIC50 (converted)
T4 construct: expressed in transfected cells; host or cells: CHO cells
T4 sequence (P28335 33-458): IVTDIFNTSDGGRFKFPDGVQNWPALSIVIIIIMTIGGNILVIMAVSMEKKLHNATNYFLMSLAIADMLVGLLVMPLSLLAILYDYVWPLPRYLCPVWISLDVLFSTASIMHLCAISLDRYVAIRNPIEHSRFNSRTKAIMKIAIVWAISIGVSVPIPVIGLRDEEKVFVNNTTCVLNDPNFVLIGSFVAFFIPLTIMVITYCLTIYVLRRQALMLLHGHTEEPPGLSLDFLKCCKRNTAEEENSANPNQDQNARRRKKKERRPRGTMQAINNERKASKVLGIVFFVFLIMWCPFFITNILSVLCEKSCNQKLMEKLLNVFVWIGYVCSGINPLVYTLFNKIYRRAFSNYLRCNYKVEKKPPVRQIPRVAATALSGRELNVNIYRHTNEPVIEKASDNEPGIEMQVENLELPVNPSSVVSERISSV
Procedure: as §1
as §2, with “concentration.” for “concentration. The affinities of the compounds for the 5-HT2 receptors were measured by means of radioligand binding studies conducted with: (a) human cloned 5-HT2A receptor, expressed in L929 cells using [^125I]R91150 as radioligand and (b) human cloned 5-HT2C receptor, expressed in CHO cells using [^3H]mesulergine as radioligand.”

[5] = human cloned 5-HT2A receptor in L929 cells, [125I]R91150, read-out: 5-HT2A pIC50 (converted)
[6] = human cloned 5-HT2A receptor in L929 cells, [125I]R91150

T3 sequence (P14416 whole entry): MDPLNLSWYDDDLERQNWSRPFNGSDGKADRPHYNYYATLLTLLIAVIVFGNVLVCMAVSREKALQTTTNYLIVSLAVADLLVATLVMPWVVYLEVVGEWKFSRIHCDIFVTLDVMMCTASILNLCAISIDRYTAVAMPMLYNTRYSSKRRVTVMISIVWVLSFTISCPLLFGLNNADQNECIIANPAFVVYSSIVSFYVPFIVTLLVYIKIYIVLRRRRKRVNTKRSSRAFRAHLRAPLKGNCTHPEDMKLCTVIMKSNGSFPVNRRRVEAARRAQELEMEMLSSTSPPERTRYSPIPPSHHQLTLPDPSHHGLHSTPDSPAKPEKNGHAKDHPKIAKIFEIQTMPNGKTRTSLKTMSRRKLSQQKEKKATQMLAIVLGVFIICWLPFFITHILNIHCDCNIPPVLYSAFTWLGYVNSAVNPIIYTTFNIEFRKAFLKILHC
T2 sequence (Q63380 1-617): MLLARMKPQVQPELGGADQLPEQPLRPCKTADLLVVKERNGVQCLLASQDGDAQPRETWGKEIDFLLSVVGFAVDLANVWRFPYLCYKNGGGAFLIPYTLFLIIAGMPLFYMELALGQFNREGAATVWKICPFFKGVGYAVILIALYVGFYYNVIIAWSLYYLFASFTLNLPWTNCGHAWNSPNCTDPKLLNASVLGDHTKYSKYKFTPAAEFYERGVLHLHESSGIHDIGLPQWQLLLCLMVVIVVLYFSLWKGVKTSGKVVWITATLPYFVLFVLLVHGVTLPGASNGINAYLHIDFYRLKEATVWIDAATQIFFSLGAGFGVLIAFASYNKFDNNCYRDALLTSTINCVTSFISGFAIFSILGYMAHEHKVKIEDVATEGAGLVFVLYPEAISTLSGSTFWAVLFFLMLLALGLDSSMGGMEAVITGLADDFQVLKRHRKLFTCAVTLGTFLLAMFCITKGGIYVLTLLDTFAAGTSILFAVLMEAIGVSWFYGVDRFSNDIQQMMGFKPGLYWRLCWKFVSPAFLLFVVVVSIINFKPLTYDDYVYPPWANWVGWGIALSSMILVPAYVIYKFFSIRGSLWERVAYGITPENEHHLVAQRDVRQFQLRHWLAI
T1 sequence (P28223 whole entry): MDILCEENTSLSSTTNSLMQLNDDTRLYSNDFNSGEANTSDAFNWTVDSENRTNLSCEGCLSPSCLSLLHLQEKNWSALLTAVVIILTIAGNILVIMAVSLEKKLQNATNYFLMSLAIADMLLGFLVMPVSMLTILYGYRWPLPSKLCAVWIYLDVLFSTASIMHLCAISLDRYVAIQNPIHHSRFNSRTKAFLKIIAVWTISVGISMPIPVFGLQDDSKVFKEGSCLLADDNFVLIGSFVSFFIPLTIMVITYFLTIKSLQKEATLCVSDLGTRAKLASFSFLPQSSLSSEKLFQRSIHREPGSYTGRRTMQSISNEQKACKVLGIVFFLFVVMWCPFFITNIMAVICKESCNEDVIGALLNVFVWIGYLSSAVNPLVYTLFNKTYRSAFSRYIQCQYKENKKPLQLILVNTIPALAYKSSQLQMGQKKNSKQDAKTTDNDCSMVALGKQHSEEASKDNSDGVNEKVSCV

Row | Structure (SMILES) | IC50 [1, 5] [nM] | IC50 [2] [nM] | IC50 [3] [nM] | IC50 [4] [nM] | IC50 [1] [nM] | 5-HT2A pIC50 [1, 6] | NET pIC50 [2] | D2L pIC50 [3] | 5-HT2C pIC50 [4]
1 | O=C(NC(=S)N1CCN(CC2CC3c4ccccc4Cc4ccc(F)cc4C3O2)CC1)c1ccccc1 (stereo not drawn) [Compound 111] | 3.89 | 3090 | 27.5 | 9.77 |  |  |  |  | 
2 | Fc1ccc2c(c1)C1OC(CN3CCN(Cc4cnc(-c5ccccc5)[nH]4)CC3)CC1c1ccccc1C2 (stereo not drawn) [Compound 67] | 3.16 | 4900 | 8.51 | 4.27 |  |  |  |  | 
3 | O=C(NCCN1CCOCC1)C1CCN(CC2CC3c4ccccc4Cc4ccc(F)cc4C3O2)CC1 (stereo not drawn) [Compound 181] | 4.79 | > 10000 | 57.5 | 7.59 |  |  |  |  | 
4 | Cc1ccc(OC2CCN(CC3CC4c5ccccc5Cc5ccc(F)cc5C4O3)C2)cc1 (stereo not drawn) [Compound 28] | 18.6 | > 10000 | 7.59 | 1.78 |  |  |  |  | 
5 | CC1(O)CCN(C[C@H]2C[C@@H]3c4ccccc4Cc4ccc(F)cc4[C@@H]3O2)C1 (stereo partly drawn) [Compound 39] | 0.631 | 1950 | 3.09 | 0.513 |  |  |  |  | 
6 | COc1cc(OC)c(CNC(=O)C2CCN(CC3CC4c5ccccc5Cc5ccc(F)cc5C4O3)CC2)c(OC)c1 (stereo not drawn) [Compound 186] | 2.4 | 3550 | 7.08 | 2.34 |  |  |  |  | 
7 | O=C(Cc1ccccc1)OC1CCN(CC2CC3c4ccccc4Cc4ccc(F)cc4C3O2)C1 (mixture of isomers) [Compound 18] |  | 1780 | 10.2 | 3.63 | 6.03 |  |  |  | 
8 | Cc1ccc(C(=O)OC2CCN(CC3CC4c5ccccc5Cc5ccc(F)cc5C4O3)C2)cc1 (mixture of isomers) [Compound 15] | 7.94 | 2090 | 7.41 | 6.31 |  |  |  |  | 
9 | Fc1ccc2c(c1)C1OC(CN3CCN(c4nc5ccccc5o4)CC3)CC1c1ccccc1C2 (stereo not drawn) [Compound 126] | 8.91 | 9770 | 214 | 79.4 |  |  |  |  | 
10 | Fc1ccc2c(c1)C1OC(CN3CCC(N4CCCCC4)CC3)CC1c1ccccc1C2 (stereo not drawn) [Compound 172] | 15.1 | 6760 | 43.7 | 15.8 |  |  |  |  | 
11 | COc1ccccc1OC1CCN(CC2CC3c4ccccc4Cc4ccc(F)cc4C3O2)C1 (mixture of isomers) [Compound 32] | 2.19 | 7410 | 7.41 | 0.912 |  |  |  |  | 
12 | N#CC1=CCN(C[C@H]2C[C@@H]3c4ccccc4Cc4ccc(F)cc4[C@@H]3O2)CC1.O=C(O)C(F)(F)F [Compound 270] |  |  |  |  |  | 7.18 | 5.78 | 6.67 | 7.45
13 | O=C(c1ccccc1)N1CCN(CC2CC3c4ccccc4Cc4ccc(F)cc4C3O2)CC1 (stereo not drawn) [Compound 82, [2R-(2α, 3aα, 12bβ)][4-(11-fluoro-3,3a,8,12b-tetrahydro-2H-1-oxa-dibenzo[e,h]-azulen-2-ylmethyl)-piperazin-1-yl]-phenyl-methanone.oxalate (1:1)] | 2.14 | > 10000 | 19.5 | 3.24 |  |  |  |  | 
14 | Fc1ccc2c(c1)C1OC(CN3CCN(CC=Cc4ccccc4)CC3)CC1c1ccccc1C2 (stereo not drawn) [Compound 48] | 30.9 | 2090 | 9.55 | 32.4 |  |  |  |  | 
15 | O=C(O)C(=O)O.OCC1CCCN(C[C@H]2C[C@@H]3c4ccccc4Cc4ccc(F)cc4[C@@H]3O2)C1 (single isomer, unassigned) [Compound 148] |  |  |  |  |  | 8.87 | <5 | 8.35 | 8.71
16 | O=[N+]([O-])c1ccc(CN2CCN(CC3CC4c5ccccc5Cc5ccc(F)cc5C4O3)CC2)cc1 (stereo not drawn) [Compound 73] | 20.4 | 3630 | 18.6 | 46.8 |  |  |  |  | 
17 | CCC(C)(C)NC(=O)N1CCN(CC2CC3c4ccccc4Cc4ccc(F)cc4C3O2)CC1 (stereo not drawn) [Compound 90] | 1.62 | 4470 | 30.9 | 20 |  |  |  |  | 
18 | O=C(O)C(=O)O.OCCN1CCCN(C[C@H]2C[C@@H]3c4ccccc4Cc4ccc(F)cc4[C@@H]3O2)CC1 [Compound 269] |  |  |  |  |  | 8.25 | 5.15 | 7.83 | 8.14
19 | CCOC(=O)CNC(=O)N1CCN(CC2CC3c4ccccc4Cc4ccc(F)cc4C3O2)CC1 (stereo not drawn) [Compound 92] | 2.57 | > 10000 | 43.7 | 15.5 |  |  |  |  | 
20 | COCC1(O)CCN(C[C@H]2C[C@@H]3c4ccccc4Cc4ccc(F)cc4[C@@H]3O2)CC1 [Compound 272] | 1.23 | 724 | 2.14 | 0.741 |  |  |  |  | 
21 | O=C(NC1CCCCC1)N1CCN(CC2CC3c4ccccc4Cc4ccc(F)cc4C3O2)CC1 (stereo not drawn) [Compound 95] | 1.74 | 9550 | 69.2 | 7.59 |  |  |  |  | 
22 | OCC1CCCN(C[C@H]2C[C@@H]3c4ccccc4Cc4ccc(F)cc4[C@@H]3O2)C1 (stereo partly drawn) [Compound 147, [2R-(2α, 3aα, 12bβ)]-(3′RS)-[1-(11-fluoro-3,3a,8,12b-tetrahydro-2H-1-oxa-dibenzo[e,h]azulen-2-ylmethyl)-piperidin-3-yl]-methanol.oxalate (1:1)] | 1.1 | > 10000 | 4.79 | 1.26 |  |  |  |  | 
23 | O=C(CCN1CCN(CC2CC3c4ccccc4Cc4ccc(F)cc4C3O2)CC1)c1ccc(F)cc1 (stereo not drawn) [Compound 52] | 3.39 | 490 | 1.2 | 2.88 |  |  |  |  | 
24 | Fc1ccc2c(c1)C1OC(CN3CCN(c4ncccc4C(F)(F)F)CC3)CC1c1ccccc1C2 (stereo not drawn) [Compound 121] | 13.2 | 3550 | 77.6 | 77.6 |  |  |  |  | 
25 | O=C(NC1CCCCCCC1)N1CCN(C[C@H]2C[C@@H]3c4ccccc4Cc4ccc(F)cc4[C@@H]3O2)CC1 [Compound 98] | 3.39 | 9550 | 42.7 | 19.5 |  |  |  |  | 
26 | O=[N+]([O-])c1ccc(-c2ccc(CN3CCN(CC4CC5c6ccccc6Cc6ccc(F)cc6C5O4)CC3)o2)cc1 (stereo not drawn) [Compound 63] | 27.5 | 562 | 74.1 | 50.1 |  |  |  |  | 
27 | O=C(C1CCCC1)N1CCN(CC2CC3c4ccccc4Cc4ccc(F)cc4C3O2)CC1 (stereo not drawn) [Compound 79] | 4.79 | > 10000 | 44.7 | 51.3 |  |  |  |  | 
28 | O=C(OCc1ccccc1)N1CCN(CC2CC3c4ccccc4Cc4ccc(F)cc4C3O2)CC1 (stereo not drawn) [Compound 85] | 66.1 | > 10000 |  | 63.1 |  |  |  |  | 
